In patent publication US9770445B2, “Sulfoximine substituted 5-fluoro-N-(pyridin-2-yl)pyridin-2-amine derivatives and their use as CDK9 kinase inhibitors” (BAYER PHARMA AKTIENGESELLSCHAFT, priority 2013, dated 2017):

Assays:
CDK9/CycT1 [1] = molecular target: T1, CDK9/CycT1 (Homo sapiens, UniProt P50750); assay: CDK9/CycT1 kinase assay (Method 1a, TR-FRET); assay type: biochemical; conditions: for IC50: Method 1a, 10 μM ATP; for Selectivity CDK9 over CDK2: IC50 (CDK2)/IC50 (CDK9): ratio of Method 2 to Method 1a values
T1 construct: Recombinant full-length His-tagged human CDK9 and CycT1; His; purchased Invitrogen PV4131; host or cells: insect cells
T1 sequence (P50750 whole entry): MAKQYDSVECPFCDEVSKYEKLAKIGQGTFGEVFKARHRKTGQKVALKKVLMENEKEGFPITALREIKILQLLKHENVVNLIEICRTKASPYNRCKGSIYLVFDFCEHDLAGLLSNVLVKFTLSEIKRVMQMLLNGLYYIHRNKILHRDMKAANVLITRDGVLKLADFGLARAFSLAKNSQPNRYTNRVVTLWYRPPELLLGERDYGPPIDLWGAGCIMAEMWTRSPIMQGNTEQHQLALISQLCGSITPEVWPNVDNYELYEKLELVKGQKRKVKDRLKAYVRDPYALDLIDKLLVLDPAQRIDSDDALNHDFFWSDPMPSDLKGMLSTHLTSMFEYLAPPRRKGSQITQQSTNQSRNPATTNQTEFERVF
T1 sequence (O60563 whole entry partner): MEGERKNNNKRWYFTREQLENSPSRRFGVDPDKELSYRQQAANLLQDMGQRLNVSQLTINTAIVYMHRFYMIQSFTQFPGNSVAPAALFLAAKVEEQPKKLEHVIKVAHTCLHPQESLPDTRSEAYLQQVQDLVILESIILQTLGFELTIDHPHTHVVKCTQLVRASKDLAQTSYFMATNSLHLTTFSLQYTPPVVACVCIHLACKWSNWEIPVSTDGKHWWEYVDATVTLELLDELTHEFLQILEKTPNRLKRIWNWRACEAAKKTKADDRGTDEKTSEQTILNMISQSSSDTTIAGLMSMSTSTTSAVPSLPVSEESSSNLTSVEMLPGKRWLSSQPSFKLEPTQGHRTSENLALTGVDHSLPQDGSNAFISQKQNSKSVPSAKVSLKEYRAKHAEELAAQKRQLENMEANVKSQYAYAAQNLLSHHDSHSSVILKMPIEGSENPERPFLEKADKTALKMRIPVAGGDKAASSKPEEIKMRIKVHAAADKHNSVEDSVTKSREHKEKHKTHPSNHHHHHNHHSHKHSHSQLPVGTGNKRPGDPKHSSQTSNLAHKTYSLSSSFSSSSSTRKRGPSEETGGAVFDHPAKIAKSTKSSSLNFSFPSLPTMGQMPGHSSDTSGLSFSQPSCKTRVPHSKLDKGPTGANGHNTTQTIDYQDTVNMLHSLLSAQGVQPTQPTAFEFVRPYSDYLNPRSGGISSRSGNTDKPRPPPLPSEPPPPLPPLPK
Excerpt: 1a. CDK9/CyeT1 Kinase Assay:
CDK9/CycT1-inhibitory activity of compounds of the present invention was quantified employing the CDK9/CycT1 TR-FRET assay as described in the following paragraphs:
Recombinant full-length His-tagged human CDK9 and CycT1, expressed in insect cells and purified by Ni-NTA affinity chromatography, were purchased from Invitrogen (Cat. No PV4131). As substrate for the kinase reaction biotinylated peptide biotin-Ttds-YISPLKSPYKISEG (C-terminus in amid form) was used which can be purchased e.g. form the company JERINI Peptide Technologies (Berlin, Germany). For the assay 50 nl of a 100 fold concentrated solution of the test compound in DMSO was pipetted into a black low volume 384 well microtiter plate (Greiner Bio-One, Frickenhausen, Germany), 2 μl of a solution of CDK9/CycT1 in aqueous assay buffer [50 mM Tris/HCl pH 8.0, 10 mM MgCl2, 1.0 mM dithiothreitol, 0.1 mM sodium ortho-vanadate, 0.01% (v/v) Nonidet-P40 (Sigma)] were added and the mixture was incubated for 15 min at 22° C. to allow pre-binding of the test compounds to the enzyme before the start of the kinase reaction. Then the kinase reaction was started by the addition of 3 μl of a solution of adenosine-tri-phosphate (ATP, 16.7 μM=>final conc. in the 5 μl assay volume is 10 μM) and substrate (1.67 μM=>final conc. in the 5 μl assay volume is 1 μM) in assay buffer and the resulting mixture was incubated for a reaction time of 25 min at 22° C. The concentration of CDK9/CycT1 was adjusted depending of the activity of the enzyme lot and was chosen appropriate to have the assay in the linear range, typical concentrations were in the range of 1 μg/mL. The reaction was stopped by the addition of 5 μl of a solution of TR-FRET detection reagents (0.2 μM streptavidine-XL665 [Cisbio Bioassays, Codolet, France] and 1 nM anti-RB(pSer807/pSer811)-antibody from BD Pharmingen [#558389] and 1.2 nM LANCE EU-W1024 labeled anti-mouse IgG antibody [Perkin-Elmer, product no. AD0077]) in an aqueous EDTA-solution (100 mM EDTA, 0.2% (w/v) bovine serum albumin in 100 mM HEPES/NaOH pH 7.0).
(§1) The resulting mixture was incubated 1 h at 22° C. to allow the formation of complex between the phosphorylated biotinylated peptide and the detection reagents. Subsequently the amount of phosphorylated substrate was evaluated by measurement of the resonance energy transfer from the Eu-chelate to the streptavidine-XL. Therefore, the fluorescence emissions at 620 nm and 665 nm after excitation at 350 nm was measured in a HTRF reader, e.g. a Rubystar (BMG Labtechnologies, Offenburg, Germany) or a Viewlux (Perkin-Elmer). The ratio of the emissions at 665 nm and at […] was taken as the measure for the amount of phosphorylated substrate. The data were normalised (enzyme reaction without inhibitor=0% inhibition, all other assay components but no enzyme=100% inhibition).

CDK9/CycT1 [2] = molecular target: T1, CDK9/CycT1; assay: CDK9/CycT1 high ATP kinase assay (Method 1b, TR-FRET); assay type: biochemical; conditions: 2 mM ATP
Procedure: 1b. CDK9/CyeT1 High ATP Kinase Assay
CDK9/CycT1-inhibitory activity of compounds of the present invention at a high ATP concentration after preincubation of enzyme and test compounds was quantified employing the CDK9/CycT1 TR-FRET assay as described in the following paragraphs.
Recombinant full-length His-tagged human CDK9 and CycT1, expressed in insect cells and purified by Ni-NTA affinity chromatography, were purchase from Invitrogen (Cat. No PV4131). As substrate for the kinase reaction biotinylated peptide biotin-Ttds-YISPLKSPYKISEG (C-terminus in amid form) was used which can be purchased e.g. form the company JERINI peptide technologies (Berlin, Germany). For the assay 50 nl of a 100 fold concentrated solution of the test compound in DMSO was pipetted into a black low volume 384 well microtiter plate (Greiner Bio-One, Frickenhausen, Germany), 2 μl of a solution of CDK9/CycT1 in aqueous assay buffer [50 mM Tris/HCl pH 8.0, 10 mM MgCl2, 1.0 mM dithiothreitol, 0.1 mM sodium ortho-vanadate, 0.01% (v/v) Nonidet-P40 (Sigma)] were added and the mixture was incubated for […] at 22° C. to allow pre-binding of the test compounds to the enzyme before the start of the kinase reaction. Then the kinase reaction was started by the addition of 3 μl of a solution of adenosine-tri-phosphate (ATP, 3.3 mM=>final conc. in the 5 μl assay volume is 2 mM) and substrate (1.67 μM=>final conc. in the 5 μl assay volume is 1 μM) in assay buffer and the resulting mixture was incubated for a reaction time of […] at 22° C. The concentration of CDK9/CycT1 was adjusted depending of the activity of the enzyme lot and was chosen appropriate to have the assay in the linear range, typical concentrations were in the range of 0.5 μg/mL The reaction was stopped by the addition of 5 μl of a solution of TR-FRET detection reagents (0.2 μM streptavidine-XL665 [Cisbio Bioassays, Codolet, France] and 1 nM anti-RB(pSer807/pSer811)-antibody from BD Pharmingen [#558389] and 1.2 nM LANCE EU-W1024 labeled anti-mouse IgG antibody [Perkin-Elmer, product no. AD0077]) in an aqueous EDTA-solution (100 mM EDTA, 0.2% (w/v) bovine serum albumin in 100 mM HEPES/NaOH pH 7.0).
as §1

IC50 (CDK9/CycT1 [1]) [nM]	Selectivity CDK9 over CDK2: IC50 (CDK2)/IC50 (CDK9) (CDK9/CycT1 [1])	IC50 (CDK9/CycT1 [2]) [nM]	SMILES
2.6	108	2.3	CS(=O)(Cc1ccnc(Nc2cc(-c3ccc(F)c4ccoc34)c(F)cn2)c1)=NC(=O)NCC(F)(F)F (racemic) [Example 13, (rac)-1-{[(2-{[5-Fluoro-4-(4-fluoro-1-benzofuran-7-yl)pyridin-2-yl]amino}pyridin-4-yl)methyl](methyl)oxido-λ^6-sulfanylidene}-3-(2,2,2-trifluoroethyl)urea]
–	–	1.3	CCc1cc(CS(C)(=N)=O)cc(Nc2cc(-c3ccc(F)c4ccoc34)c(F)cn2)n1 (racemic) [Example 8, (rac)-N-{6-Ethyl-4-[(S-methylsulfonimidoyl)methyl]pyridin-2-yl}-5-fluoro-4-(4-fluoro-1-benzofuran-7-yl)pyridin-2-amine]
19	5.8	7	CS(=O)(Cc1cc(Nc2cc(-c3ccc(F)c4ccoc34)c(F)cn2)nc(C(F)(F)F)c1)=NC(=O)C(F)(F)F (racemic) [Example 4, (rac)-2,2,2-Trifluoro-N-[{[2-{[5-fluoro-4-(4-fluoro-1-benzofuran-7-yl)pyridin-2-yl]amino}-6-(trifluoromethyl)pyridin-4-yl]methyl}(methyl)oxido-λ^6-sulfanylidene]acetamide]
2.1	19	1.3	Cc1cc(CS(C)(=N)=O)cc(Nc2cc(-c3ccc(F)c4ccoc34)c(F)cn2)n1 (racemic) [Example 7, (rac)-5-Fluoro-4-(4-fluoro-1-benzofuran-7-yl)-N-{6-methyl-4-[(S-methylsulfonimidoyl)-methyl]pyridin-2-yl}pyridin-2-amine]
7	54	7.8	CS(=O)(Cc1cc(F)nc(Nc2cc(-c3ccc(F)c4ccoc34)c(F)cn2)c1)=NC(=O)C(F)(F)F (racemic) [Example 2, (rac)-2,2,2-Trifluoro-N-{[(2-fluoro-6-{[5-fluoro-4-(4-fluoro-1-benzofuran-7-yl)pyridin-2-yl]amino}pyridin-4-yl)methyl](methyl)oxido-λ^6-sulfanylidene}acetamide]
2.7	61	2.3	CC(=O)N=S(C)(=O)Cc1ccnc(Nc2cc(-c3ccc(F)c4ccoc34)c(F)cn2)c1 (racemic) [Example 10, (rac)-N-{[(2-{[5-fluoro-4-(4-fluoro-1-benzofuran-7-yl)pyridin-2-yl]amino}pyridin-4-yl)methyl](methyl)oxido-λ^6-sulfanylidene}acetamide]
5.8	3.6	2.7	CS(=N)(=O)Cc1cc(Nc2cc(-c3ccc(F)c4ccoc34)c(F)cn2)nc(C(F)(F)F)c1 (racemic) [Example 3, (rac)-5-Fluoro-4-(4-fluoro-1-benzofuran-7-yl)-N-{4-[(S-methylsulfonimidoyl)methyl]-6-(trifluoromethyl)pyridin-2-yl}pyridin-2-amine]
2.6	56	1.6	CS(=O)(Cc1ccnc(Nc2cc(-c3ccc(F)c4ccoc34)c(F)cn2)c1)=NC#N (racemic) [Example 9, (rac)-{[(2-{[5-fluoro-4-(4-fluoro-1-benzofuran-7-yl)pyridin-2-yl]amino}pyridin-4-yl)methyl](methyl)oxido-λ^6-sulfanylidene}cyanamide]
2.6	44	1.9	CCNC(=O)N=S(C)(=O)Cc1ccnc(Nc2cc(-c3ccc(F)c4ccoc34)c(F)cn2)c1 (racemic) [Example 12, (rac)-1-Ethyl-3-{[(2-{[5-fluoro-4-(4-fluoro-1-benzofuran-7-yl)pyridin-2-yl]amino}pyridin-4-yl)methyl](methyl)oxido-λ^6-sulfanylidene}urea]
4.9	110	6.4	CS(=O)(Cc1ccnc(Nc2cc(-c3ccc(F)c4ccoc34)c(F)cn2)c1)=NC(=O)C(F)(F)F (racemic) [Example 6, (rac)-2,2,2-Trifluoro-N-{[(2-{[5-fluoro-4-(4-fluoro-1-benzofuran-7-yl)pyridin-2-yl]amino}pyridin-4-yl)methyl](methyl)oxido-λ^6-sulfanylidene}acetamide]
3.1	45	2	CCOC(=O)N=S(C)(=O)Cc1ccnc(Nc2cc(-c3ccc(F)c4ccoc34)c(F)cn2)c1 (racemic) [Example 11, (rac)-Ethyl {[(2-{[5-fluoro-4-(4-fluoro-1-benzofuran-7-yl)pyridin-2-yl]amino}pyridin-4-yl)methyl](methyl)oxido-λ^6-sulfanylidene}carbamate]
4	11	1.5	CS(=N)(=O)Cc1cc(F)nc(Nc2cc(-c3ccc(F)c4ccoc34)c(F)cn2)c1 (racemic) [Example 1, (rac)-5-Fluoro-4-(4-fluoro-1-benzofuran-7-yl)-N-{6-fluoro-4-[(S-methylsulfonimidoyl)methyl]pyridin-2-yl}pyridin-2-amine]
3.4	38	2	CS(=N)(=O)Cc1ccnc(Nc2cc(-c3ccc(F)c4ccoc34)c(F)cn2)c1 (racemic) [Example 5, (rac)-5-Fluoro-4-(4-fluoro-1-benzofuran-7-yl)-N-{4-[(S-methylsulfonimidoyl)methyl]pyridin-2-yl}pyridin-2-amine]
